pIC50: −log10 of the molar value. Values after ≈ are worked out from the molar mass of the structure shown. Active and inactive are the calls of the source. No cut-off for these calls is given here.
How the values were obtained:
[1] = test system: Enterococcus faecium; test: Antibacterial activity against vancomycin-resistant Enterococcus faecium; assay type: functional
[2] = test system: Staphylococcus aureus; test: Antibacterial activity against methicillin-resistant Staphylococcus aureus; assay type: functional
[3] = test system: Staphylococcus aureus; test: Antibacterial activity against methicillin and linezolid-resistant Staphylococcus aureus; assay type: functional
[4] = test system: Staphylococcus aureus; test: Inhibition of protein biosynthesis in Staphylococcus aureus upto 50 ug/ml in whole cell activity assay; assay type: functional, organism-based
[5] = test system: Escherichia coli; test: Antibacterial activity against wild type Escherichia coli; assay type: functional
[6] = test system: Staphylococcus aureus; test: Antibacterial activity against methicillin and macrolide-resistant Staphylococcus aureus; assay type: functional
[7] = Inhibition of Staphylococcus aureus FabF assessed as reduced accumulation of long chain beta-ketoacyl-ACP by FabF/FabH PAGE elongation assay
[8] = test system: Staphylococcus aureus; test: Inhibition of fatty acid synthesis in Staphylococcus aureus in whole cell activity assay; assay type: functional, organism-based
[9] = test system: Candida albicans; test: Antifungal activity against Candida albicans; assay type: functional
[10] = Toxicity in human RBC assessed as drug level causing hemolysis; assay type: cell-based; settings: erythrocyte
[11] = test system: HeLa; test: Cytotoxicity against human HeLa cells by MTT assay; assay type: functional, cell-based
[12] = test system: Streptococcus pneumoniae; test: Inhibition of fatty acid synthesis in Streptococcus pneumoniae in whole cell activity assay; assay type: functional, organism-based
[13] = Inhibition of Staphylococcus aureus FabH by direct binding assay
[14] = biological target: T1, Malonyl CoA-acyl carrier protein transacylase (Staphylococcus aureus) (UniProt Q93QD4); test: Inhibition of Staphylococcus aureus FabD assessed as reduced malonyl-ACP levels
T1 sequence (whole entry): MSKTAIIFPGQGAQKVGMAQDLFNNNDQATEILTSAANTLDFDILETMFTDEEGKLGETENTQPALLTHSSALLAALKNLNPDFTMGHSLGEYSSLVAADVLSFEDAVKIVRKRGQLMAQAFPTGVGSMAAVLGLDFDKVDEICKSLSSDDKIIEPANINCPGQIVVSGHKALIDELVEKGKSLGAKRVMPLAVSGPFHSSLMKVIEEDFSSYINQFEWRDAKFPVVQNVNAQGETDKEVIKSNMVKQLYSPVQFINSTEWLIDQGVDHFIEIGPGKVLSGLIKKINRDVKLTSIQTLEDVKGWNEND

[15] = test system: Enterococcus faecalis; test: Antibacterial activity against macrolide-resistant Enterococcus faecalis; assay type: functional
[16] = test system: Staphylococcus aureus; test: Antibacterial activity against Staphylococcus aureus expressing antisense fabF assessed as drug level causing >5 mm zone of inhibition after 18 hrs by agar diffusion two plate differential sensitivity antisense assay; assay type: functional
[17] = test system: Staphylococcus aureus; test: Inhibition of cell wall biosynthesis in Staphylococcus aureus upto 50 ug/ml in whole cell activity assay; assay type: functional, organism-based
[18] = test system: Staphylococcus aureus; test: Antibacterial activity against methicillin-sensitive Staphylococcus aureus; assay type: functional
[19] = test system: Escherichia coli; test: Antibacterial activity against efflux negative-tolC mutant containing Escherichia coli; assay type: functional
[20] = Inhibition of Staphylococcus aureus FabH assessed as reduced accumulation of acetoacetyl-ACP by FabF/FabH PAGE elongation assay
[21] = test system: Streptococcus pneumoniae; test: Antibacterial activity against Streptococcus pneumoniae; assay type: functional
[22] = test system: Staphylococcus aureus; test: Antibacterial activity against vancomycin-intermediate resistant Staphylococcus aureus; assay type: functional
[23] = test system: Staphylococcus aureus; test: Antibacterial activity against Staphylococcus aureus in presence of serum; assay type: functional
[24] = test system: Staphylococcus aureus; test: Inhibition of RNA biosynthesis in Staphylococcus aureus upto 50 ug/ml in whole cell activity assay; assay type: functional, organism-based
[25] = test system: Staphylococcus aureus; test: Inhibition of DNA biosynthesis in Staphylococcus aureus upto 50 ug/ml in whole cell activity assay; assay type: functional, organism-based
[26] = test system: Staphylococcus aureus; test: Antibacterial activity against methicillin-sensitive Staphylococcus aureus infected mouse kidney assessed as log reduction of bacterial count at 150 ug/hr after 24 hrs; assay type: functional
[27] = Inhibition of Staphylococcus aureus FabH assessed as reduced accumulation of long chain beta-ketoacyl-ACP by FabF/FabH PAGE elongation assay
[28] = Inhibition of Staphylococcus aureus FabF by direct binding assay
[29] = Inhibition of Staphylococcus aureus FabF assessed as reduced accumulation of acetoacetyl-ACP by FabF/FabH PAGE elongation assay
[30] = species on record: Mus musculus; test: Toxicity in methicillin-sensitive Staphylococcus aureus infected mouse model at 150 ug/hr after 24 hrs; assay type: organism-based; settings: in vivo
[31] = test system: Staphylococcus aureus; test: Inhibition of Staphylococcus aureus FabF assessed as reduced accumulation of long chain beta-ketoacyl-ACP at 2 ug/ml by FabF/FabH PAGE elongation assay
[32] = test system: Staphylococcus aureus; test: Inhibition of Staphylococcus aureus FabF assessed as reduced accumulation of long chain beta-ketoacyl-ACP at 20 ug/ml by FabF/FabH PAGE elongation assay

CC12C[C@@]34C=CC(=O)[C@@](C)(CCC(=O)Nc5c(O)ccc(C(=O)O)c5O)C3[C@H](CC1C4)O2 (stereo partly specified) [PLATENSIMYCIN]
MIC [1]: 0.1 µg/mL (≈ 0.227 µM) | MIC [2]: 0.5 µg/mL (≈ 1.13 µM) | MIC [3]: 1 µg/mL (≈ 2.27 µM) | Activity [4]: inactive | MIC [5]: > 64 µg/mL | MIC [6]: 0.5 µg/mL (≈ 1.13 µM) | pIC50 [7]: 6.54 | IC50 [8]: 0.1 µg/mL (≈ 0.227 µM) | MIC [9]: > 64 µg/mL | Activity [10]: > 67 µg/mL | IC50 [11]: > 1000 µg/mL | IC50 [12]: 0.8 µg/mL (≈ 1.81 µM) | pIC50 [13]: 4.17 | Activity [14]: inactive | MIC [15]: 1 µg/mL (≈ 2.27 µM) | Activity [16]: 0.004 µg | Activity [17]: inactive | MIC [18]: 0.5 µg/mL (≈ 1.13 µM) | MIC [19]: 16 µg/mL (≈ 36.2 µM) | pIC50 [20]: 3.61 | MIC [21]: 1 µg/mL (≈ 2.27 µM) | MIC [22]: 0.5 µg/mL (≈ 1.13 µM) | MIC [23]: 2 µg/mL | Activity [24]: inactive | Activity [25]: inactive

C[C@@H]1[C@H](O)[C@@H](C)/C=C/C=C/C=C/C=C/C=C/C=C/C=C/[C@H](O[C@@H]2O[C@H](C)[C@@H](O)[C@H](N)[C@@H]2O)C[C@@H]2O[C@](O)(C[C@@H](O)C[C@@H](O)[C@H](O)CC[C@@H](O)C[C@@H](O)CC(=O)O[C@H]1C)C[C@H](O)[C@H]2C(=O)O [AMPHOTERICIN B]
Activity [10]: 2 µg/mL

C=C1C[C@@]23C=CC(=O)[C@@](C)(CCC(=O)Nc4c(O)ccc(C(=O)O)c4O)[C@@H]2C[C@@H]1CC3 [PLATENCIN]
Activity [26]: 3 | MIC [1]: < 0.06 µg/mL | pIC50 [27]: 5.04 | MIC [2]: 1 µg/mL (≈ 2.35 µM) | pIC50 [28]: 6.95 | MIC [3]: 1 µg/mL (≈ 2.35 µM) | MIC [5]: > 64 µg/mL | pIC50 [29]: 5.34 | MIC [6]: 1 µg/mL (≈ 2.35 µM) | IC50 [8]: 0.19 µg/mL (≈ 0.447 µM) | MIC [9]: > 64 µg/mL | Activity [10]: > 67 µg/mL | IC50 [11]: > 100 µg/mL | IC50 [12]: 2.7 µg/mL (≈ 6.35 µM) | pIC50 [13]: 4.79 | Activity [14]: inactive | MIC [15]: 2 µg/mL (≈ 4.7 µM) | Activity [16]: 0.002 µg | MIC [18]: 0.5 µg/mL (≈ 1.18 µM) | MIC [19]: 2 µg/mL (≈ 4.7 µM) | MIC [21]: 4 µg/mL (≈ 9.4 µM) | MIC [22]: 0.5 µg/mL (≈ 1.18 µM) | MIC [23]: 8 µg/mL | Activity [30]: Non-toxic

O=C(O)c1cc2cc(OCc3c(Cl)cccc3Cl)ccc2n1Cc1cc2c(cc1Cl)OCO2
inhibition [31]: 50% | inhibition [32]: 90% | pIC50 [20]: 5.40

CC(=O)NC[C@H]1CN(c2ccc(N3CCOCC3)c(F)c2)C(=O)O1 [LINEZOLID]
MIC [1]: 2 µg/mL (≈ 5.93 µM) | MIC [3]: 32 µg/mL (≈ 94.9 µM) | MIC [5]: > 64 µg/mL | MIC [9]: > 64 µg/mL | Activity [10]: > 67 µg/mL | IC50 [11]: > 100 µg/mL | MIC [19]: 32 µg/mL (≈ 94.9 µM)

O=C(N[C@H](CO)[C@H](O)c1ccc([N+](=O)[O-])cc1)C(Cl)Cl [CHLORAMPHENICOL]
Activity [10]: > 64 µg/mL
